Test results from patent publication US20170258817A1, “FOSFESTROL FOR USE IN CURATIVE OR PALLIATIVE TREATMENT OF PROSTATE CANCER” (CHAMAELEO PHARMA BVBA, priority 2012, published 2017).

Legend:
prostate cancer = settings: 5 mg of DES p.o. per day; cited from earlier work
[1] = buccal administration; cited from earlier work
prostate cancer cells = settings: cited from earlier work
[2] = tested on: DU-145 prostate cancer cells; settings: through inhibition of microtubule formation; cited from earlier work
[3] = tested on: DU-145 hormone-independent prostate cancer cell line; assay: in vitro direct cytotoxicity, Cell titer blue viability assay; type: cell-based; settings: Homo sapiens; DU-145, 72 hrs incubation
Procedure: (§1) Cells were maintained in vitro in RPMI 1640 containing 10% (v/v) heat inactivated fetal bovine serum (FBS) and 2 mM L-glutamine (growth media) at 37° C. in 5% CO2 and humidified conditions. Cells were harvested, washed, re-suspended into growth medium and counted. The cells were re-suspended into assay media (RPMI 1640+1% (v/v) heat inactivated FBS+ and 2 mM L-glutamine) at 0.5×10^5 cells/ml for DU-145 cells and 1×10^5 for LNCaP cells, and plated into 96-well assay plates (Corning, black-wall plates) and 50 μl/well aliquots.
(§2) Plates were incubated O/N at 37° C. in 5% humidified CO2 prior to addition of the compounds. […] Fosfestrol was dissolved in sterile water at stock concentration of 60 mM. Stocks of all compounds were then serially diluted. Final concentrations to which cells were exposed were: 300, 150, 75, 37.5, 18.75, 9.4, 4.7, 2.3, 1.2 and 0.6 μM. Positive control was Taxotere. Taxotere was diluted in 100% DSMO to give a stock concentration of 1 mM. Stock was serial diluted and final concentration to which cells were exposed was: 1000, 333.3, 111.1, 37.0, 12.3, 4.1, 1.4, 0.5, and 0.2 nM.
(§3) Plates were incubated for 72 hrs at 37° C. in 5% humidified CO-2 after addition of the compounds. Viability of the cells was assessed with the Cell titer blue® (Promega) assay. […] Fluorescence was measured with a Flex II station plate reader. […]

[4] = tested on: LNCaP hormone-dependent prostate cancer cell line; assay: as above; type: cell-based; settings: Homo sapiens, 72 hrs incubation
Procedure: as §1, §2, §3

Compound	increase of non-cancer related deaths, mostly cardiovascular (prostate cancer)	DES plasma level, on average [1]	induction of thromboembolic activator (Fibrinogen) [1]	DES concentrations that do not influence prostate cancer cell growth (prostate cancer cells)	minimal concentration of DES to induce some cytotoxic effects (prostate cancer cells)	effect on DU-145 prostate cancer cells [2]	IC50 [3]	IC50 [4]
CC/C(=C(/CC)c1ccc(O)cc1)c1ccc(O)cc1 [DES, diethylstilbestrol]	36%	11 ng DES/ml	without inducing a thromboembolic activator (Fibrinogen)	up to 100 ng/ml	1 µg/mL	cytotoxic effects	–	–
CC(=O)O[C@@]12CO[C@@H]1C[C@H](O)[C@@]1(C)C(=O)[C@H](O)C3=C(C)[C@@H](OC(=O)[C@H](O)[C@@H](NC(=O)OC(C)(C)C)c4ccccc4)C[C@@](O)([C@@H](OC(=O)c4ccccc4)[C@H]21)C3(C)C [Taxotere]	–	–	–	–	–	–	4 nM	2 nM
